Data reported in ChEMBL document CHEMBL5150060 (J Med Chem, 2022).
The source made the active and inactive calls. The calls are words filed in the database; no cut-off is given here.

Key:
Histone deacetylase 11 = biological target: T1, Histone deacetylase 11 (Homo sapiens, UniProt Q96DB2); test: Inhibition of recombinant human HDAC11 preincubated for 10 mins followed by substrate addition by fluorescence based analysis
T1 sequence (Q96DB2 whole entry): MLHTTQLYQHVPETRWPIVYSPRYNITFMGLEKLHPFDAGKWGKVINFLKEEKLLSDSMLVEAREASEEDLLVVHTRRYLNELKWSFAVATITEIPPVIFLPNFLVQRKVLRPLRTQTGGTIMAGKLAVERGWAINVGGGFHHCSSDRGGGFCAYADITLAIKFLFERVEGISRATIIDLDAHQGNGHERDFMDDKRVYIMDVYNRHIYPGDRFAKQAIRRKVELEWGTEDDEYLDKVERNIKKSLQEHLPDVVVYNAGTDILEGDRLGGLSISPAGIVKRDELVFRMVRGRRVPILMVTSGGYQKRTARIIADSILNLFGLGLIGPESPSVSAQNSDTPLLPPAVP

[1] = biological target: T2, Histone deacetylase 8 (Homo sapiens) (UniProt Q9BY41); test: Inhibition of HDAC8 in human Jurkat T cells assessed as upregulation of IL-7R expression at 10 uM after 6 to 12 hrs by RT-qPCR analysis; assay type: cell-based; details: time 6-12 hrs
T2 sequence (whole entry): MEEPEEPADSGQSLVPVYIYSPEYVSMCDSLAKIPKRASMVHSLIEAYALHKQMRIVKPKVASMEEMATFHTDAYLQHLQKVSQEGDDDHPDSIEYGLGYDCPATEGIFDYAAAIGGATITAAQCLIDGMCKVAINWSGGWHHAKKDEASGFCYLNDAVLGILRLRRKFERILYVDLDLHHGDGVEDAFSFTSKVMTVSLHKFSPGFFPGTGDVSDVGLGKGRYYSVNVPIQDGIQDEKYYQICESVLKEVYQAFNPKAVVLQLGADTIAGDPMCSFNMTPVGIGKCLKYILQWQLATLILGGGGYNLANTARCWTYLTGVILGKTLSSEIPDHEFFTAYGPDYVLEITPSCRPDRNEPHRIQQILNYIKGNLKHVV

[2] = Toxicity in C57BL/6 mouse assessed as change in liver weight at 5 to 10 mg/kg, ip administered 5 days per week for 2 weeks by H and E staining based assay; assay type: organism-based; details: in vivo, 336 h, dose 5-10 mg/kg
[3] = biological target: T2, Histone deacetylase 8 (Homo sapiens); test: Inhibition of HDAC8 in human Jurkat T cells assessed as upregulation of EOMES expression after 6 hrs by RT-qPCR analysis; assay type: cell-based; details: dose 0.1-10 µM, DDE = dose-dependent effect
Histone deacetylase 8 = biological target: T3, Histone deacetylase 8 (Homo sapiens, UniProt Q9BY41); test: Competitive inhibition of human HDAC8 using Abz-SRGGK(STFA)FFRR-NH2 (S) as substrate by Lineweaver-burk plot analysis
T3 sequence (Q9BY41 whole entry): T2 sequence (whole entry)

[4] = biological target: T2, Histone deacetylase 8 (Homo sapiens); test: Inhibition of HDAC8 in human Jurkat T cells assessed as upregulation of IL15 expression after 6 hrs by RT-qPCR analysis; assay type: cell-based; details: dose 0.1-10 µM, DDE = dose-dependent effect
[5] = biological target: T2, Histone deacetylase 8 (Homo sapiens); test: Inhibition of HDAC8 in human Jurkat T cells assessed as upregulation of BCL6 expression after 6 hrs by RT-qPCR analysis; assay type: cell-based; details: dose 0.1-10 µM, DDE = dose-dependent effect
[6] = Toxicity in C57BL/6 mouse assessed as change in body weight at 5 to 10 mg/kg, ip administered 5 days per week for 2 weeks; assay type: organism-based; details: in vivo, 336 h, dose 5-10 mg/kg

IC50 (Histone deacetylase 11): 180 nM | inhibition [1]: Active | inhibition [3]: Dde | Ki (Histone deacetylase 8): 30.6 nM | inhibition [4]: Dde | inhibition [5]: Dde
SMILES: CCCCCCNNC(=O)c1ccc(-c2ccc(CNC(C)=O)cc2)cc1
Activity [2]: Non-Toxic | Activity [6]: Non-Toxic
